Measured values reported in US8592421B2, “Cyclic bioisosters of purine system derivatives and a pharmaceutical composition based thereon” (priority 2003, dated 2013).

How the values were obtained:
[1] = test system: thrombocytes; experiment: ADP-induced aggregation of thrombocytes in vitro (Born method, plasma enriched with thrombocytes); type: cell-based, rabbit; conditions: 3-minute incubation, ADP 10^−5 M
Description: The aggregation of thrombocytes was studied by the Born method based on determination of the changes in the optical density of plasma enriched with thrombocytes after its incubation with an aggregation inductor.
Adenozinediphosphoric acid (ADP) was selected as an aggregation inductor, which in fact is an aggregation generator. Use was made of a sample (registration number 885) of the Sigma Diagnostics Company (USA) in final concentration of 10^−5 M.
The experiments were carried out on male rabbits of the “Chinchilla” breed having a mass of 2.7±0.3 kg. 18-24 hours prior to the experiment they were deprived of feed while preserving free access to water.
To obtain plasma enriched with thrombocytes, blood was taken from a cut of a marginal vein of the rabbit ear, the sample was stabilized with 3.8% of sodium citrate solution in a ratio of 9:1 and centrifuged at 200 g (1000 rev/min) for 10 minutes. The top supernatant layer enriched with thrombocytes was transferred by an automatic dropper into a silicone test tube and kept at 37° C. The plasma enriched with thrombocytes contained, on the average, […]. If this content exceeded the specified 3×10^8 blood platelets in 1 liter, this sample was diluted to the necessary concentration with plasma deprived of thrombocytes, which was obtained by centrifuging blood at 650 g during 10 minutes.
The measurements of the optical density of the samples were made on two-channel aggregometer of the “Chronolog” Company (USA). A flask containing 490 mkl of plasma rich with thrombocytes was placed in a device, into which a magnetic agitator covered with Teflon was lowered. The index of maximum amplitude of aggregation (MA) in percent of a fall of the plasma optical density under effect of the aggregation inductor was recorded. The control index MA of plasma was compared with the MA of plasma incubated for 3 minutes with different concentrations of the compounds: from 10^−3 to 10^−7 in vitro experiments or with plasma obtained 15, 30, 60 and 120 minutes after intravenous administration of different doses of the compounds in vivo experiments.
The process of aggregation of thrombocytes was recorded with the help of a computer; on the monitor screen the there were depicted curves reflecting changes of the optical density of the plasma enriched which was taken as a standard 100% compared to the optical density of the non-thrombocyte plasma taken for 0% content of thrombocytes.
Under in vitro conditions a flask was filled with blood plasma enriched with thrombocytes, to which an aggregation inductor ADP was added at a concentration of 10^−5 M, incubated for 3 minutes, and then the compounds according to the invention were introduced directly into the flask. Their action by aggregation of thrombocytes was studied after 3-minute incubation in a wide range of concentrations from 10^−3 to 10^−7 M to minimum concentration of 10^−7M not inducing no effect of suppressing the aggregation.

[2] = Electrochemical activity: polarographic reduction on mercury dripping electrode; type: physicochemical; conditions: for i: 2.0% sodium chloride background, 9·10^−4 M; for i / −E1/2: 37° C., forward trace, average for the group of compounds; for −E1/2: vs SCE
Description: The study was carried out on a general-purpose polarograph PU-1 with a two-coordinate recorder of the “LKD” type using a three-electrode thermostatically controlled polarographic cell and mercury dripping electrode (MDE) with forced separation of the drop and a dropping period of 0.5 second. A platinum wire was used as an auxiliary electrode and a saturated calomel electrode (SCE) was used as a control electrode.
2.0% solutions of sodium chloride having pH 7.0, 7.2, 7.4, 7.6 were used as a background; the pH values of the background solution were corrected by a solution of sodium hydroxide. The polarographic cell was filled with 5.0 ml of the background solution and for 5 minutes was purged with nitrogen for removing the dissolved oxygen. Then 0.5 ml of solution of the studied substance was added to the background solution, and the polarogram was recorded as a polarographic wave. The concentration of the compounds in the polarographic cell was 9·10^−4 M.
The pH was measured on the pH-meter with an accuracy of +0.05 pH units. The polarographic measurements were carried out at a temperature of 37° C. The recording of polarograms of the investigated materials was effected under conditions of DC current at a scanning rate of the potential 10.0 mV/s with a active scanning stroke from a potential 0 to −0.5 V and sweep retrace from a −0.5 V to 0. The electric-current sensitivity was 5.0 mkA. The scale by the coordinate of the potentials was 50.0 mV/cm. The values of potentials of the half-wave E1/2 of the investigated materials are given with respect to the SCE potential.
The polarogram parameters such as a limiting current ilim and E1/2 were determined by the graphic method. The number of electrons participating in the reaction was calculated on the basis of the analysis of the polarographic wave using the Geirovsky-Ilkovich equation.
The calculation of the number of electrons participating in the reduction reaction was effected using the Geirovsky-Ilkovich equation: […]

[3] = test system: embryonic fibroblasts of mouse NIH-3T3; conditions: cells of mice NSO and NIH-3T3, 1-5 mkM, within 15-20 minutes; cited from earlier work
[4] = test system: embryonic fibroblasts of mouse NIH-3T3; experiment: Effect on endocellular pHi of fibroblasts (microspectrofluorimetry with FDA / BCECF-AM); type: cell-based; conditions: 10 mkM in medium with serum
Description: The effect of the compounds according to the invention on the endocellular pH, embryonic fibroblasts of mouse NIH-3T3 supplied by the All-Russian Collection of Cellular Cultures of the Institute of Cytology of the Russian Academy of Sciences St. Petersburg was investigated. The cells were grown in the DMEM (Sigma) medium containing 2.2 g/l of sodium bicarbonate with addition of 80.0 mkg/ml of gentamicin and 10.0% embryonal veal serum at a temperature of 37° C. in an atmosphere containing 5.0% of carbon dioxide. For these experiments use was also made of a medium buffer with 5.0 mM of HEPES and 15.0 mM of sodium bicarbonate without serum or with addition of 5.0% serum. The cells were calculated with the help of a hemocytometer. A share of the dead cells was determined by colouring trypan blue.
The measurements of the endocellular pHi were carried out with the help of colorants FDA (Sigma) and BCECF-AM (Calbiochem) on a microspectrofluorimeter by a standard technique (Koshevoy Yu. V., Akatov V. S., Grobova M. E. Microspectrofluorimeter for measuring endocellular pH (micro pH)”. Devices and equipment for studies in the field of physical-and-chemical biology and biotechnology. Pushchino, 1990. P. 8-14).
The cells at a temperature of 37° C. were colored within 5 minutes with 5.0 mkM PDA that before the colouring was prepared from a 10.0 mM solution in acetone by dilution for 30 minutes in a phosphatic buffer to 0.1 mM or 2.0 mkM 1.0 mM solution BCECF-AM in DMSO.
The two-wave method of determining pHi was used based on the ratio intensities of fluorescence of the cells on two wavelengths (Akatov V. S. et all), “Endocellular pH and substrate dependence of proliferation of fibroblasts of Chinese hamster, Cytology, 1991, 33 (7), p. 86-94). The fluorescence was excited by light at λ=490 nm, the emission was recorded simultaneously with two photomultipliers on wavelengths λ=535 nm and λ=570 nm. The K-ratio of the fluorescence on two wavelengths was determined with a deduction of the background fluorescence of the medium near the investigated cells for 40-60 individual cells, which are then averaged taking into account the measurement error. A thermostatically controlled table was used that allowed measurements to be conducted at a temperature of 37° C. An account was taken for the photodynamic damage of the pigmented cells during long-time continuous illumination by excited light. The readings were taken from a section of the preparation exposed to light for not more than 5 minutes.
The calibration curves for determining the absolute pHi values by magnitude K were constructed using the Thomas technique (Thomas J. A., Bushbaum R. N., Zimniak A. w Racker E. “Intracellular pH measurements in Ehrlich ascites tumor cells utilizing spectroscopic probe generated in situ”, Biochemistry, 1979, v. 18, p. 2210-2218), for which case the pigmented cells treated for 5-10 minutes with carboxyacidic nigericyn (Calbiochem) at a concentration of 5-10 mkg/ml was placed in a solution with a high content of potassium—130 mM KCl, 1.0 mM MgCl2, 20.0 mM of HEPES) and with pH values from 6.2 to 7.6. The K values were measured in the media with different pH assuming that pHi of the cells equals to the pH of the medium due to the action of nigericyn, which exchanges potassium ions for protons and at a high content of potassium in the medium counterbalances the pH of the medium and cells. Calibration curves were used based on the fluorescence of same medium with addition of 5.0 mkM of fluorescence or BCECF were used to the control the stability of the of the instrument readings.
The cells were colored by pigment BCECF-AM and pHi was measured 10 minutes after incubation in the medium with an appropriate pH value. […]

| SMILES | MA - fall of optical density of plasma, % to the standard ([1]; 10^−3 M, control 60.8 ± 3.4) [%] | MA - fall of optical density of plasma, % to the standard ([1]; 10^−4 M, control 60.0 ± 2.1) [%] | MA - fall of optical density of plasma, % to the standard ([1]; 10^−5 M, control 52.5 ± 2.1) [%] | MA - drop of optical density, % ([1]; 10^−6 M, control 52.8 ± 1.8) [%] | MA - drop of optical density, % ([1]; 10^−7 M, control 51.5 ± 2.1) [%] | number of electrons participating in the reduction reaction ([2]; calculated with Geirovsky-Ilkovich equation) | i ([2]; pH 7.0) [mkA] | −E1/2 ([2]; pH 7.0) [V] | i ([2]; pH 7.2) [mkA] | −E1/2 ([2]; pH 7.2) [V] | i ([2]; pH 7.4) [mkA] | −E1/2 ([2]; pH 7.4) [V] | i ([2]; pH 7.6) [mkA] | −E1/2 ([2]; pH 7.6) [V] | half-wave potential more positive at reverse stroke compared to forward stroke ([2]; polarograms of reverse stroke) [mV] | increase of pHi [3] [unit] | rise of pHi [4] [pH unit] |
| --- | --- | --- | --- | --- | --- | --- | --- | --- | --- | --- | --- | --- | --- | --- | --- | --- | --- |
| Nc1ncnc2c(=O)n([C@@H]3O[C@H](CO)[C@@H](O)[C@H]3O)[nH]c(=O)c12.[Na] [Compound 31, sodium salt of 4-amino-7-(β-D-ribofuranosile)pyrimido[4,5-d]-6H-pyridazine-5,8-dione] | 44.9 ± 2.3 | 46.7 ± 2.2 | 39.9 ± 2.1 | 47.5 ± 1.7 | 49.5 ± 1.2 |  |  |  |  |  |  |  |  |  |  |  |  |
| O=c1[nH]n([C@@H]2O[C@H](CO)[C@@H](O)[C@H]2O)c(=O)c2ccccc12.[Na] [Compound 9, sodium salt of 2-(β-D-ribofuranosile)benzo[d]-3H-pyridazine-1,4-dione] | 47.3 ± 2.0 | 53.1 ± 1.8 | 41.4 ± 3.4 | 49.4 ± 3.2 | 51.2 ± 1.7 |  |  |  |  |  |  |  |  |  |  |  |  |
| Nc1cccc2c(=O)n([C@@H]3O[C@H](CO)[C@@H](O)[C@H]3O)[nH]c(=O)c12.[Na] [Compound 10, sodium salt of 5-amino-2-(CP (β-D-ribofuranosile)benzo[d]-3H-pyridazine-1,4-dione] | 46.2 ± 2.7 | 48.7 ± 2.4 | 40.2 ± 4.0 | 48.4 ± 2.4 | 49.8 ± 2.0 | 4.09 | 0.23 ± 0.03 | 0.092 ± 0.02 | 0.30 ± 0.01 | 0.09 ± 0.01 | 0.29 ± 0.02 | 0.092 ± 0.02 | 0.31 ± 0.02 | 0.09 ± 0.01 | 30.0 |  |  |
| CC[C@@]1([C@@H]2O[C@@H]([C@H]3O[C@@](O)(CO)[C@H](C)C[C@@H]3C)C[C@@H]2C)CC[C@H]([C@]2(C)CC[C@]3(C[C@H](O)[C@@H](C)[C@@H]([C@@H](C)[C@@H](OC)[C@H](C)C(=O)O)O3)O2)O1 [monensine, reference compound] |  |  |  |  |  |  |  |  |  |  |  |  |  |  |  | 0.2 | 0.12 |
| O=c1[nH]n([C@@H]2O[C@H](CO)[C@@H](O)[C@H]2O)c(=O)c2nccc(O)c12.[Na].[Na] [Compound 4, disodium salt of 4-hydroxy-7-(βD-ribofuranosile)pyrido[2,3-d]-6H-pyridazine-5,8-dione] | 49.2 ± 2.3 | 50.2 ± 2.0 | 46.2 ± 3.1 | 50.6 ± 3.1 | 49.9 ± 3.4 |  |  |  |  |  |  |  |  |  |  |  |  |
| Nc1cnc2c(=O)[nH][nH]c(=O)c2n1.[Na] [Compound 28, sodium salt of 2-amino-pyrazine[2,3-d]-6H-pyridazine-5,8-dione] | 49.7 ± 2.2 | 48.9 ± 2.4 | 44.2 ± 2.7 |  | 50.4 ± 3.0 |  |  |  |  |  |  |  |  |  |  |  |  |
